Measurements published in the supplement of paper PMC10307832.

How the values were obtained:
Experiment in all cases: relative viability (nuclei count vs DMSO), 5 days (fraction); higher = more cells survive
Vemurafenib + Bortezomib = compound: CCCS(=O)(=O)Nc1ccc(F)c(C(=O)c2c[nH]c3ncc(-c4ccc(Cl)cc4)cc23)c1F [Vemurafenib] + CC(C)C[C@H](NC(=O)[C@H](Cc1ccccc1)NC(=O)c1cnccn1)B(O)O [Bortezomib] (partner 0.002 µM)
Outline: (§1)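 Each reported value is a median over duplicate plates. It expresses relative viability: treated-well nuclei count divided by vehicle-well nuclei count. Lung cancer cell lines in 1536-well plates were dosed by pin tool a day after seeding, alone with one drug or with a fixed anchor-drug dose plus five library-drug doses (not always all listed) in √10 steps, and nuclei were counted after 5 days.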

Vemurafenib + AZD7762 = compound: CCCS(=O)(=O)Nc1ccc(F)c(C(=O)c2c[nH]c3ncc(-c4ccc(Cl)cc4)cc23)c1F [Vemurafenib] + NC(=O)Nc1cc(-c2cccc(F)c2)sc1C(=O)N[C@H]1CCCNC1 [AZD7762] (partner 0.2 µM)
Outline: as §1

Vemurafenib + Decitabine = compound: CCCS(=O)(=O)Nc1ccc(F)c(C(=O)c2c[nH]c3ncc(-c4ccc(Cl)cc4)cc23)c1F [Vemurafenib] + Nc1ncn([C@H]2C[C@H](O)[C@@H](CO)O2)c(=O)n1 [Decitabine] (partner 2 µM)
Outline: as §1

OSI-027 + Vorinostat = compound: COc1cccc2cc(-c3nc([C@H]4CC[C@H](C(=O)O)CC4)n4ncnc(N)c34)[nH]c12 [OSI-027] + O=C(CCCCCCC(=O)Nc1ccccc1)NO [Vorinostat] (partner 1 µM)
Outline: as §1

Row | Cell Line | relative viability (Vemurafenib + Bortezomib; first compound 0.03162 µM) | relative viability (Vemurafenib + Bortezomib; first compound 0.1 µM) | relative viability (Vemurafenib + Bortezomib; first compound 0.3162 µM) | relative viability (Vemurafenib + Bortezomib; first compound 1 µM) | relative viability (Vemurafenib + AZD7762; first compound 0.03162 µM) | relative viability (Vemurafenib + AZD7762; first compound 0.1 µM) | relative viability (Vemurafenib + AZD7762; first compound 0.3162 µM) | relative viability (Vemurafenib + AZD7762; first compound 1 µM) | relative viability (Vemurafenib + Decitabine; first compound 0.03162 µM) | relative viability (Vemurafenib + Decitabine; first compound 0.1 µM) | relative viability (Vemurafenib + Decitabine; first compound 0.3162 µM) | relative viability (Vemurafenib + Decitabine; first compound 1 µM) | relative viability (OSI-027 + Vorinostat; first compound 0.01 µM) | relative viability (OSI-027 + Vorinostat; first compound 0.03162 µM) | relative viability (OSI-027 + Vorinostat; first compound 0.1 µM) | relative viability (OSI-027 + Vorinostat; first compound 0.3162 µM) | relative viability (OSI-027 + Vorinostat; first compound 1 µM)
1 | 201T | 1.07 | 0.998 | 1.15 | 1.17 | 0.652 | 0.515 | 0.604 | 0.617 | 0.821 | 0.825 | 0.886 | 0.799 | 0.938 | 0.934 | 0.961 | 0.952 | 0.828
2 | A-427 | 0.885 | 0.998 | 0.962 | 1.03 | 0.696 | 0.709 |  | 0.792 | 0.553 | 0.456 |  | 0.591 | 0.886 | 0.844 | 0.78 | 0.721 | 0.542
3 | ABC-1 | 0.268 | 0.302 | 0.267 | 0.287 | 0.668 | 0.775 | 0.622 | 0.813 | 1.01 | 1.13 | 0.967 | 0.977 | 0.764 | 1.19 | 0.66 | 0.67 | 0.758
4 | BEN | 0.768 | 0.933 | 0.351 | 0.554 | 0.566 | 0.761 | 0.392 | 0.638 | 0.577 | 0.756 | 0.366 | 0.675 | 0.557 | 0.55 | 0.511 | 0.428 | 0.297
5 | CAL-12T | 0.835 |  |  | 0.974 | 0.594 | 0.617 | 0.535 | 0.593 |  |  |  |  | 1.06 | 0.585 | 0.68 | 0.535 | 0.321
6 | ChaGo-K-1 | 0.934 | 0.725 |  | 1.08 | 0.818 | 0.853 | 0.738 | 0.882 | 0.548 | 0.47 | 0.493 | 0.512 | 0.732 | 0.815 | 0.709 | 0.698 | 0.581
7 | EKVX | 0.895 |  | 1.03 | 1.05 | 0.689 |  | 0.683 | 0.6 | 0.368 |  | 0.37 | 0.397 | 0.661 | 0.618 | 0.649 | 0.561 | 0.4
8 | EMC-BAC-2 | 0.984 | 1.02 | 0.899 | 0.835 | 1.06 | 1.09 | 0.851 | 1.05 | 0.958 | 0.934 |  | 0.96 | 0.333 | 0.498 | 0.299 | 0.236 | 0.277
9 | EPLC-272H | 0.857 | 0.749 | 0.812 | 0.867 | 0.251 | 0.166 | 0.156 | 0.218 | 0.337 | 0.367 | 0.472 | 0.399 | 0.384 | 0.358 | 0.267 | 0.384 | 0.233
10 | H3255 | 0.802 |  | 0.612 | 0.681 | 0.843 |  | 0.723 | 0.949 | 0.524 |  | 0.604 | 0.605 | 0.729 | 0.935 | 0.693 | 0.795 | 0.652
